pIC50: −log10 of the molar value.

Human recombinant DHX9 protein, sequence (Q08211 whole entry): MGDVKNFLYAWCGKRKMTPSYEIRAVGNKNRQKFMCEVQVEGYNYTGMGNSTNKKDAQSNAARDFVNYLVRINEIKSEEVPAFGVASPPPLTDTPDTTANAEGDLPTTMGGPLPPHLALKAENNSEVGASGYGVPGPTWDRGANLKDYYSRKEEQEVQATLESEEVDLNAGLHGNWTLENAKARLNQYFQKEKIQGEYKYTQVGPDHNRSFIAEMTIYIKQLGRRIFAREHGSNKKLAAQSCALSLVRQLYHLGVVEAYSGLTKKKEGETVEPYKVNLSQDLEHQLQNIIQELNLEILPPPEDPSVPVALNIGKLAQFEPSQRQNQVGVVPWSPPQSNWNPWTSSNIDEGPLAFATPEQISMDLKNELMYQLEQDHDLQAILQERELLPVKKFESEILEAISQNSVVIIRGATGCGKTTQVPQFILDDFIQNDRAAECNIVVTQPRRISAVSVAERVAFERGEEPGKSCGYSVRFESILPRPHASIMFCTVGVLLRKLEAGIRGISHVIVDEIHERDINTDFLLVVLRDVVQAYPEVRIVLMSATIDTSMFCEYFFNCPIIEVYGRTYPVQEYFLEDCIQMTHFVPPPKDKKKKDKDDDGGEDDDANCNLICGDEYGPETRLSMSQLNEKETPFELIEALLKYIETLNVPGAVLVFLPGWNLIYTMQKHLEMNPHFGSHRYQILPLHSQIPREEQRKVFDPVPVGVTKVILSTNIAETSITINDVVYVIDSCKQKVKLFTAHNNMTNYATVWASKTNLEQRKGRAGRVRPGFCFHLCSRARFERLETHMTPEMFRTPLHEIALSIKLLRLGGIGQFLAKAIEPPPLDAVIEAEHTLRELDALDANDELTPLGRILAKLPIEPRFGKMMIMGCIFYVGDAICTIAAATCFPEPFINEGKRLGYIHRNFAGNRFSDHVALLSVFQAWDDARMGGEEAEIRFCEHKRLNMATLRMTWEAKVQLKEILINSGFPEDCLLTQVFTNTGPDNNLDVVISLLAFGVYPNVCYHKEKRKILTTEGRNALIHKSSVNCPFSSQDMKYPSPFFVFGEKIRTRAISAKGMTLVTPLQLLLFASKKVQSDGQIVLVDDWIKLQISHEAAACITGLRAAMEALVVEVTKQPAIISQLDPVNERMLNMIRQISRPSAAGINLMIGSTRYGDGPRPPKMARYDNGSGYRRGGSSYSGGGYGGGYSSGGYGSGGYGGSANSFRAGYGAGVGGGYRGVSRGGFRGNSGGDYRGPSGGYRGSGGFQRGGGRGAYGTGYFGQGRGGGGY

The first assay addresses Human recombinant DHX9 protein (Homo sapiens (Human), UniProt Q08211). Description: DHX9 ATPase assay (ADP-Glo). The class given is biochemical.
Conditions: not given
In the case of `Cn1cc(C(=O)Nc2cc(Cl)cc(NS(C)(=O)=O)c2)cc1-c1ncc(N2CC(C(F)(F)F)C2)cn1` [Example 493], the “DHX9 Biochemical Max Inhibition” value amounted to 67.
On the same count and under the same terms, then `Cn1cc(C(=O)Nc2cc(Cl)cc(NS(C)(=O)=O)c2)cc1-c1ncc(N2CCC3(C2)CC3(F)F)cn1` (centres unmarked) [Example 494], with 55.9; and `Cn1cc(C(=O)Nc2cc(Cl)cc(NS(C)(=O)=O)c2)cc1-c1ccc(N2CCC3(C2)CC3(F)F)cn1` (centres unmarked) [Example 495], with 61.8; and `Cc1sc(C(=O)Nc2cc(Cl)cc(NS(C)(=O)=O)c2)cc1-c1ccc(N2CC(C(F)(F)F)C2)cn1` [Example 496], with 71.9.
Still for that read-out and setting: then `Cn1cc(C(=O)Nc2cc(Cl)cc(NS(C)(=O)=O)c2)cc1-c1ccc(N2CC(C(F)(F)F)C2)cn1` [Example 497], with 65.2; and `Cn1cc(C(=O)Nc2cc(Cl)cc(NS(C)(=O)=O)c2)cc1-c1ccc(N2CC3(C2)CC(F)(F)C3)cn1` [Example 498], with 65.4; and `Cc1sc(C(=O)Nc2cc(Cl)cc(NS(C)(=O)=O)c2)cc1-c1ccc(N2CC3(C2)CC(F)(F)C3)cn1` [Example 499], with 68.1.
The same measure, in the same setting: under `Cc1sc(C(=O)Nc2cc(F)cc(NS(C)(=O)=O)c2)cc1-c1ncc(N2CC(C(F)(F)F)C2)cc1F` [Example 501] stands 73.3; under `Cc1sc(C(=O)Nc2cc(Cl)cc(NS(C)(=O)=O)c2)cc1-c1ncc(F)cc1N1CCS(=O)(=O)CC1` [Example 503], 63.7; under `CC(=O)N1CCN(c2cc(F)cnc2-c2cc(C(=O)Nc3cc(Cl)cc(NS(C)(=O)=O)c3)sc2C)CC1` [Example 504], 65.9.
As for `COC1CCN(c2cc(F)cnc2-c2cc(C(=O)Nc3cc(Cl)cc(NS(C)(=O)=O)c3)sc2C)C1` (centres unmarked) [Example 505], the “DHX9 Biochemical Max Inhibition” value is on record as 54.3.
Still for that read-out and setting: then `Cc1sc(C(=O)Nc2cc(Cl)cc(NS(C)(=O)=O)c2)cc1-c1ncc(F)cc1N1CCN(S(C)(=O)=O)CC1` [Example 506], with 47.4; and `Cc1sc(C(=O)Nc2cc(Cl)cc(NS(C)(=O)=O)c2)cc1-c1ncc(F)cc1N1CCC2(CC1)CC2` [Example 507], with 52.9.
Consider `CS(=O)(=O)Nc1cc(Cl)cc(NC(=O)c2cc(-c3ncc(N4CC(C(F)(F)F)C4)cn3)n(CC(F)F)c2)c1` [Example 508], for which the “DHX9 Biochemical Max Inhibition” value is listed as 67.1.
Same read-out and setting: under `CCS(=O)(=O)Nc1cc(Cl)cc(NC(=O)c2cc(-c3ncc(N4CC(F)C4)cn3)c(C)s2)c1` [Example 509] stands 90.9; under `Cc1sc(C(=O)Nc2cc(Cl)cc(NS(C)(=O)=O)c2)cc1-c1ncc(N2CC(F)(F)C2)cn1` [Example 510], 83.7; under `Cc1sc(C(=O)Nc2cc(Cl)cc(NS(C)(=O)=O)c2)cc1-c1ncc(N2CC3(C2)CC(F)(F)C3)cc1F` [Example 511], 89.8.
Still for that read-out and setting: then `Cc1sc(C(=O)Nc2cc(Cl)cc(NS(C)(=O)=O)c2)cc1-c1ncc(N2CCC3(COC3)C2)cc1F` [Example 512], with 74.3; and `CC(C)Oc1cc(N2CC(F)(F)C2)cnc1-c1cc(C(=O)Nc2cc(Cl)cc(NS(C)(=O)=O)c2)cn1C` [Example 513], with 56.4.

Still in this assay, the particulars now being: read-out: DHX9 Biochemical Inflection Point.
For the molecule `Cn1cc(C(=O)Nc2cc(Cl)cc(NS(C)(=O)=O)c2)cc1-c1ncc(N2CC(C(F)(F)F)C2)cn1` [Example 493], the pIC50 is 7.61.
`Cn1cc(C(=O)Nc2cc(Cl)cc(NS(C)(=O)=O)c2)cc1-c1ncc(N2CCC3(C2)CC3(F)F)cn1` (centres unmarked) [Example 494]: the pIC50 was 7.57.
Same read-out and setting: then `Cn1cc(C(=O)Nc2cc(Cl)cc(NS(C)(=O)=O)c2)cc1-c1ccc(N2CCC3(C2)CC3(F)F)cn1` (centres unmarked) [Example 495], with 7.07; and `Cc1sc(C(=O)Nc2cc(Cl)cc(NS(C)(=O)=O)c2)cc1-c1ccc(N2CC(C(F)(F)F)C2)cn1` [Example 496], with 7.71.
The same measure, in the same setting: under `Cn1cc(C(=O)Nc2cc(Cl)cc(NS(C)(=O)=O)c2)cc1-c1ccc(N2CC(C(F)(F)F)C2)cn1` [Example 497] stands 7.50.
Same read-out and setting: then `Cn1cc(C(=O)Nc2cc(Cl)cc(NS(C)(=O)=O)c2)cc1-c1ccc(N2CC3(C2)CC(F)(F)C3)cn1` [Example 498], with 7.42.
On to `Cc1sc(C(=O)Nc2cc(Cl)cc(NS(C)(=O)=O)c2)cc1-c1ccc(N2CC3(C2)CC(F)(F)C3)cn1` [Example 499], for which the pIC50 is 7.45.
The same measure, in the same setting: then `Cc1sc(C(=O)Nc2cc(F)cc(NS(C)(=O)=O)c2)cc1-c1ncc(N2CC(C(F)(F)F)C2)cc1F` [Example 501], with 7.15.
The same measure, in the same setting: then `Cc1sc(C(=O)Nc2cc(Cl)cc(NS(C)(=O)=O)c2)cc1-c1ncc(F)cc1N1CCS(=O)(=O)CC1` [Example 503], with 7.40; and `CC(=O)N1CCN(c2cc(F)cnc2-c2cc(C(=O)Nc3cc(Cl)cc(NS(C)(=O)=O)c3)sc2C)CC1` [Example 504], with 7.63.
On to `COC1CCN(c2cc(F)cnc2-c2cc(C(=O)Nc3cc(Cl)cc(NS(C)(=O)=O)c3)sc2C)C1` (centres unmarked) [Example 505], for which the pIC50 was 7.33.
The same measure, in the same setting: under `Cc1sc(C(=O)Nc2cc(Cl)cc(NS(C)(=O)=O)c2)cc1-c1ncc(F)cc1N1CCN(S(C)(=O)=O)CC1` [Example 506] stands 6.74; under `Cc1sc(C(=O)Nc2cc(Cl)cc(NS(C)(=O)=O)c2)cc1-c1ncc(F)cc1N1CCC2(CC1)CC2` [Example 507], 5.82.
The same measure, in the same setting: under `CS(=O)(=O)Nc1cc(Cl)cc(NC(=O)c2cc(-c3ncc(N4CC(C(F)(F)F)C4)cn3)n(CC(F)F)c2)c1` [Example 508] stands 7.02; under `CCS(=O)(=O)Nc1cc(Cl)cc(NC(=O)c2cc(-c3ncc(N4CC(F)C4)cn3)c(C)s2)c1` [Example 509], 8.40; under `Cc1sc(C(=O)Nc2cc(Cl)cc(NS(C)(=O)=O)c2)cc1-c1ncc(N2CC(F)(F)C2)cn1` [Example 510], 8.09.
The same measure, in the same setting: then `Cc1sc(C(=O)Nc2cc(Cl)cc(NS(C)(=O)=O)c2)cc1-c1ncc(N2CC3(C2)CC(F)(F)C3)cc1F` [Example 511], with 7.29; and `Cc1sc(C(=O)Nc2cc(Cl)cc(NS(C)(=O)=O)c2)cc1-c1ncc(N2CCC3(COC3)C2)cc1F` [Example 512], with 7.96.
On to `CC(C)Oc1cc(N2CC(F)(F)C2)cnc1-c1cc(C(=O)Nc2cc(Cl)cc(NS(C)(=O)=O)c2)cn1C` [Example 513], for which the pIC50 is 7.11.
